Reference: patent publication US9445594B2, “Molecules having certain pesticidal utilities, intermediates, compositions, and processes, related thereto” (priority 2014, dated 2016)

Experiments:
Assay type in all cases: in vivo
[1] = system: Green Peach Aphid (Myzus persicae, MYZUPE) ("GPA"); assay: Bioassays on GPA, foliar spray of infested cabbage seedlings; details: 72 h, 200 ppm spray on cabbage seedlings, graded after three days, Abbott corrected % control, read-out: GPA % Control (or Mortality) rating
Procedure, shortened: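 Cabbage seedlings (2-3 true leaves) infested with 20-50 wingless adult and nymph aphids one day before spraying to runoff at 200 ppm in aqueous 0.025% Tween 20 with 20% acetone/methanol. Live aphids counted after three days at ~25 °C; % control by Abbott's correction versus solvent-check plants.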

[2] = system: Beet Armyworm (Spodoptera exigua, LAPHEG) ("BAW"); assay: Bioassays on BAW, 128-well diet tray assay; details: 168 h, second instar larvae, 50 μg/cm^2 on artificial diet, 25° C., five to seven days, average of eight wells, read-out: BAW % Control (or Mortality) rating
Procedure, shortened: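 One to five second-instar larvae were placed per well on artificial diet surface-treated with 50 μg/cm^2 compound from 90:10 acetone-water, dried before infestation. Trays were held at 25 °C, 14:10 light-dark, for five to seven days. Percent mortality was averaged over eight wells.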

[3] = system: Corn Earworm (Helicoverpa zea, HELIZE) ("CEW"); assay: Bioassays on CEW, 128-well diet tray assay; details: 168 h, second instar larvae, 50 μg/cm^2 on artificial diet, 25° C., five to seven days, average of eight wells, read-out: CEW % Control (or Mortality) rating
Description: Certain molecules disclosed in this document were tested against BAW, CEW, and CL using procedures described in the following examples. In the reporting of the results, the “BAW, CEW, & CL Rating Table” was used (See Table Section).
Bioassays on CEW were conducted using a 128-well diet tray assay. one to five second instar CEW larvae were placed in each well (3 mL) of the diet tray that had been previously filled with 1 mL of artificial diet to which 50 μg/cm^2 of the test compound (dissolved in 50 μL of 90:10 acetone-water mixture) had been applied (to each of eight wells) and then allowed to dry. Trays were covered with a clear self-adhesive cover, and held at 25° C., 14:10 light-dark for five to seven days. Percent mortality was recorded for the larvae in each well; activity in the eight wells was then averaged. The results are indicated in the table entitled “Table ABC: Biological Results” (See Table Section). Bioassays on CL

[4] = system: Yellow Fever Mosquito (Aedes aegypti, AEDSAE) ("YFM"); assay: Bioassays on YFM, 96-well plate larval assay; details: about 1 day-old larvae, from 4000 ppm DMSO master plate diluted, room temperature, scored after 3 days
Procedure, shortened: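 Compounds from 4000 ppm DMSO master plates, diluted in 90:10 water:acetone, dispensed into 96-well plates, six replicates. About 1-day-old larvae added in liver-powder water. Wells covered, held 3 days at room temperature, then scored for mortality.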

[5] = system: Cabbage Looper (Trichoplusia ni, TRIPNI) ("CL"); assay: Bioassays on CL, 128-well diet tray assay; details: 168 h, second instar larvae, 50 μg/cm^2 on artificial diet, 25° C., five to seven days, average of eight wells, read-out: CL % Control (or Mortality) rating
Procedure, shortened: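 Second-instar larvae (one to five per well) on artificial diet surface-treated with 50 μg/cm^2 compound in 90:10 acetone-water, eight wells per treatment. Held at 25° C., 14:10 light-dark for five to seven days. Percent mortality scored per well and averaged over the eight wells.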

Row | Compound | mortality at 200 ppm [1] [%] | mortality at 50 µg/cm2 [2] [%] | mortality at 50 µg/cm2 [3] [%] | YFM % Control (or Mortality) rating [4] | mortality at 50 µg/cm2 [5] [%]
1 | CC(=O)N(C(=S)Nc1cccc(C)c1)c1ccc(-c2ncn(-c3ccc(OC(F)(F)F)cc3)n2)cc1 [F67, N-(m-tolylcarbamothioyl)-N-(4-(1-(4-(trifluoromethoxy)phenyl)-1H-1,2,4-triazol-3-yl)phenyl)acetamide] | 0 | 0 to 50 | 0 | D (No activity noticed in this bioassay) | 
2 | Cc1ccc(C)n1-c1ccccc1NC(=S)Nc1ccc(-c2ncn(-c3ccc(OC(F)(F)F)cc3)n2)cc1 [F75, 1-(2-(2,5-Dimethyl-1H-pyrrol-1-yl)phenyl)-3-(4-(1-(4-(trifluoromethoxy)phenyl)-1H-1,2,4-triazol-3-yl)phenyl)thiourea] | 0 | 50 to 100 | 50 to 100 | D (No activity noticed in this bioassay) | 50 to 100
3 | COc1ccc(NC(=S)NCc2ccc(-c3ncn(-c4ccc(OC(F)(F)C(F)(F)F)cc4)n3)cc2)cc1 [F110, 1-(4-methoxyphenyl)-3-(4-(1-(4-(perfluoroethoxy)phenyl)-1H-1,2,4-triazol-3-yl)benzyl)thiourea] | 0 | 50 to 100 | 0 | D (No activity noticed in this bioassay) | 
4 | COc1ccc(NC(=S)NCc2ccc(-c3ncn(-c4ccc(OC(F)(F)C(F)(F)F)cc4)n3)cc2)c(C)c1 [F111, 1-(4-methoxy-2-methylphenyl)-3-(4-(1-(4-(perfluoroethoxy)phenyl)-1H-1,2,4-triazol-3-yl)benzyl)thiourea] | 0 | 50 to 100 | 50 to 100 | A (80-100) | 
5 | CN(C)c1ccc(NC(=S)NCc2ccc(-c3ncn(-c4ccc(OC(F)(F)C(F)(F)F)cc4)n3)cc2)cc1 [F112, 1-(4-(Dimethylamino)phenyl)-3-(4-(1-(4-(perfluoroethoxy)phenyl)-1H-1,2,4-triazol-3-yl)benzyl)thiourea] | 0 | 0 to 50 | 0 | D (No activity noticed in this bioassay) | 
